Laboratory results as given in patent US8796259B2, “N3-heteroaryl substituted triazoles and N5-heteroaryl substituted triazoles useful as axl inhibitors” (Rigel Pharmaceuticals, Inc., priority 2006, dated 2014).

What follows are molecules tested against T1, Axl (Homo sapiens, UniProt P30530) (assay: Phospho-Akt in-cell Western assay (inhibition of Axl activity, Axl-antibody cross-linking stimulation)). Conditions: Hela cells, phospho-Akt readout; compounds of formula (Ia), Table 1.
T1 construct: endogenous in cells; host or cells: HeLa cells
T1 sequence (P30530 26-894): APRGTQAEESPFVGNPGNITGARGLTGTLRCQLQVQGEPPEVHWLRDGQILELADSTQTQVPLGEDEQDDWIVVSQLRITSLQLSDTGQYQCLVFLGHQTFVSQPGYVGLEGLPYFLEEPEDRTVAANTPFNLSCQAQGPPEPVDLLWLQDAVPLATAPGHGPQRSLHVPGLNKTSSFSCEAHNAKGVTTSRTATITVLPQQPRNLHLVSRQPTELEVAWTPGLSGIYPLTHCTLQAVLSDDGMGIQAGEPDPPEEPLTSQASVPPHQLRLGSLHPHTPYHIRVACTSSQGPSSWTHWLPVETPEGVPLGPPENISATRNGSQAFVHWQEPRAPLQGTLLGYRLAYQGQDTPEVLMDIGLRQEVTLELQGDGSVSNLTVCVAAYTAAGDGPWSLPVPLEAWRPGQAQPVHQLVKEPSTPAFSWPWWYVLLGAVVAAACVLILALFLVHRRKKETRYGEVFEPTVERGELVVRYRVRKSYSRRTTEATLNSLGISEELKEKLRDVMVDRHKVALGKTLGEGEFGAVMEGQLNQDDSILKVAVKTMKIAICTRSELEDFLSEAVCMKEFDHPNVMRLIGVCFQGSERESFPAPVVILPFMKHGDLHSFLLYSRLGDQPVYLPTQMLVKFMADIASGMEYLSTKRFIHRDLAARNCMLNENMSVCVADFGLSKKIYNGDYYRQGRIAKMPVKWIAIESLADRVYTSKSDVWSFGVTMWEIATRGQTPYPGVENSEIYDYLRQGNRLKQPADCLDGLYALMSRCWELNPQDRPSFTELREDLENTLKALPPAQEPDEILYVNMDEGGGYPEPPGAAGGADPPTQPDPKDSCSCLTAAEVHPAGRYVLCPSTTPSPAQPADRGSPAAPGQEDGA
Assay type: cell-based
In short: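 HeLa cells on poly-L-lysine were starved 24 h in 0.5% FCS/DMEM with 500 ng/mL Axl/Fc, pre-treated with compound 1 h at 37 °C, then stimulated 5 min by cross-linked mouse anti-Axl/biotin anti-mouse antibody clusters. After formaldehyde fixation, phospho-Akt was detected by rabbit anti-phospho-Akt and HRP secondary with chemiluminescence read-out.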

IC50 [µM] | SMILES
< 1 | Cc1csc2c(-n3nc(Nc4ccc(N5CCC(N6CCCCCC6)CC5)nc4)nc3N)nc(Cl)nc12 [compound 35, 1-(2-chloro-7-methylthieno [3,2-d]pyrimidin-4-yl)-N^3-(6-(4-(azepan-1-yl)piperidin-1-yl)pyridin-3-yl)-1H-1,2,4-triazole-3,5-diamine]
< 1 | Cc1csc2c(-n3nc(Nc4ccc(N5CCN([C@H]6C[C@@H]7CC[C@H]6C7)CC5)nc4)nc3N)ncnc12 [compound 73, 1-(7-methylthieno [3,2-d]pyrimidine-4-yl)-N^3-(6-(4-((1S,2S,4R)-bicyclo[2.2.1]heptan-2-yl)piperazin-1-yl)pyridin-3-yl)-1H-1,2,4-triazole-3,5-diamine]
> 20 | Nc1nc(Nc2ccc3c(c2)OCCO3)nn1-c1ccccc1 [compound 3, N^3-(2,3-dihydrobenzo [b][1,4]dioxin-6-yl)-1-phenyl-1H-1,2,4-triazole-3,5-diamine]
< 1 | Cc1cc(Nc2nc(N)n(-c3ncnc4ccsc34)n2)cnc1N1CCN([C@H]2CC3CCC2C3)[C@@H](C)C1 (stereo partly drawn) [compound 108, 1-(thieno [3,2-d]pyrimidin-4-yl)-N^3-(2-(3-(S)-methyl-4-(2S)-bicyclo[2.2.1]heptan-2-ylpiperazin-1-yl)-3-methylpyridin-5-yl)-1H-1,2,4-triazole-3,5-diamine]
1 to 10 | Cc1csc2c(-n3nc(Nc4ccc(N5CCN(CC6CC6)[C@@H](C)C5)nc4)nc3N)nc(Cl)nc12 [compound 115, 1-(2-chloro-7-methyithieno [3,2-d]pyrimidin-4-yl)-N^3-(2-(4-cyclopropyl-methyl-3-(S)-methyl-piperazin-1-yl)pyridin-5-yl)-1H-1,2,4-triazole-3,5-diamine]
< 1 | Cc1csc2c(-n3nc(Nc4cnc5c(c4)CN(C(=O)C4CCN(C)CC4)CC5)nc3N)nc(Cl)nc12 [compound 61, 1-(2-chloro-7-methylthieno [3,2-d]pyrimidin-4-yl)-N^3-(6-(1-methyl-piperidin-4-ylcarbonyl)-5,6,7,8-tetrahydro-1,6-naphthyridin-3-yl)-1H-1,2,4-triazole-3,5-diamine]
< 1 | COc1cc2ncnc(-n3nc(Nc4ccc(N5CCN(CC6CC6)[C@@H](C)C5)nc4)nc3N)c2cc1OC [compound 114, 1-(6,7-dimethoxy-quinazoline-4-yl)-N^3-(2-(4-cyclo-propylmethyl-3-(S)-methyl-piperazin-1-yl)pyridin-5-yl)-1H-1,2,4-triazole-3,5-diamine]
< 1 | COc1cc2ncnc(-n3nc(Nc4cnc5c(c4)CCN(C4CCCC4)CC5)nc3N)c2cc1OC [compound 13, 1-(6,7-dimethoxy-quinazoline-4-yl)-N^3-(7-cyclopentyl-6,7,8,9-tetrahydro-5H-pyrido[3,2-d]azepin-3-yl)-1H-1,2,4-triazole-3,5-diamine]
< 1 | Cc1csc2c(-n3nc(Nc4ccc(N5CCCN(C6CC7CCC6C7)CC5)nc4)nc3N)nc(Cl)nc12 (stereo not shown) [compound 46, 1-(2-chloro-7-methylthieno [3,2-d]pyrimidin-4-yl)-N^3-(6-(4-(bicyclo[2.2.1]heptan-2-yl)-1,4-diazepan-1-yl)pyridin-3-yl)-1H-1,2,4-triazole-3,5-diamine]
1 to 10 | COc1cc2ncnc(-n3nc(Nc4ccc5c(c4)NC(=O)CCC5)nc3N)c2cc1OC [compound 9, 1-(6,7-dimethoxy-quinazoline-4-yl)-N^3-(4,5-dihydro-1H-benzo[b]azepin-2(3H)-on-8-yl)-1H-1,2,4-triazole-3,5-diamine]
< 1 | CCN(CC)CC1CCCN1c1ccc(Nc2nc(N)n(-c3nc(Cl)nc4c(C)csc34)n2)cn1 (stereo not shown) [compound 38, 1-(2-chloro-7-methylthieno [3,2-d]pyrimidin-4-yl)-N^3-(6-(2-diethylamino-methyl-pyrrolidin-1-yl)pyridin-3-yl)-1H-1,2,4-triazole-3,5-diamine]
< 1 | Cc1csc2c(-n3nc(Nc4cnc5c(c4)CC(NC4CCN(C)CC4)CC5)nc3N)ncnc12 (stereo not shown) [compound 84, 1-(7-methylthieno [3,2-d]pyrimidin-4-yl)-N^3-(6-(1-methyl-piperidin-4-ylamino)-5,6,7,8-tetrahydro-quinolin-3-yl)-1H-1,2,4-triazole-3,5-diamine]
< 1 | Cc1csc2c(-n3nc(Nc4cnc5c(c4)CC(N4CCN(C)CC4)CC5)nc3N)nc(Cl)nc12 (stereo not shown) [compound 66, 1-(2-chloro-7-methylthieno [3,2-d]pyrimidin-4-yl)-N^3-(6-(4-methyl-piperazin-1-yl)-5,6,7,8-tetrahydro-quinolin-3-yl)-1H-1,2,4-triazole-3,5-diamine]

Further lines, the molecule ahead of its results:

SMILES | IC50 [µM]
CN1CCN(c2ccc(Nc3nc(N)n(-c4nccc5ccccc45)n3)cn2)CC1 [compound 31, 1-(isoquinolin-1-yl)-N^3-(6-(4-methyl-piperazin-1-yl)pyridin-3-yl)-1H-1,2,4-triazole-3,5-diamine] | < 1
Cc1csc2c(-n3nc(Nc4cnc5c(c4)CC(NC4CC6CCC4C6)CC5)nc3N)nc(Cl)nc12 (stereo not shown) [compound 103, 1-(2-chloro-7-methylthieno [3,2-d]pyrimidin-4-yl)-N^3-(6-bicyclo[2.2.1]heptan-2-yl-amino-5,6,7,8-tetrahydro-quinolin-3-yl)-1H-1,2,4-triazole-3,5-diamine] | < 1
COc1cc2ncnc(-n3nc(Nc4ccc(C=CCN5CCN(C6CCCC6)CC5)nc4)nc3N)c2cc1OC [compound 90, 1-(6,7-dimethoxy-quinazoline-4-yl)-N^3-(6-(3-(4-cyclopentyl-piperazin-1-yl)propenyl)pyridin-3-yl)-1H-1,2,4-triazole-3,5-diamine] | < 1
Cc1csc2c(-n3nc(Nc4ccc(C=CCN5CCN(C6CCCC6)CC5)nc4)nc3N)ncnc12 [compound 125, 1-(7-methylthieno [3,2-d]pyrimidin-4-yl)-N^3-(2-(3-(4-cyclopentyl-piperazin-1-yl)propen-1-yl)pyridin-5-yl)-1H-1,2,4-triazole-3,5-diamine] | < 1
COc1cc2ncnc(-n3nc(Nc4ccc(N5CCCN(C6CC7CCC6C7)CC5)nc4)nc3N)c2cc1OC (stereo not shown) [compound 47, 1-(6,7-dimethoxy-quinazoline-4-yl)-N^3-(6-(4-(bicyclo [2.2.1]heptan-2-yl)-1,4-diazepan-1-yl)pyridin-3-yl)-1H-1,2,4-triazole-3,5-diamine] | < 1
Cc1csc2c(-n3nc(Nc4ccc(C=CCN5CCN(C)CC5)nc4)nc3N)ncnc12 [compound 123, 1-(7-methylthieno [3,2-d]pyrimidin-4-yl)-N^3-(2-(3-(4-methyl-piperazin-1-yl)propen-1-yl)pyridin-5-yl)-1H-1,2,4-triazole-3,5-diamine] | < 1
CN1CCc2ncc(Nc3nc(N)n(-c4nccc5ccccc45)n3)cc2C1 [compound 16, 1-(isoquinolin-1-yl)-N^3-(6-methyl-5,6,7,8-tetrahydro-1,6-naphthyridin-3-yl)-1H-1,2,4-triazole-3,5-diamine] | < 1
Cc1csc2c(-n3nc(Nc4cnc5c(c4)CC(N)CC5)nc3N)nc(Cl)nc12 (stereo not shown) [compound 30, 1-(2-chloro-7-methylthieno [3,2-d]pyrimidin-4-yl)-N^3-(6-amino-5,6,7,8-tetrahydro-quinolin-3-yl)-1H-1,2,4-triazole-3,5-diamine] | < 1
Cc1cc(Nc2nc(N)n(-c3ncnc4sc5c(c34)CCC5)n2)cnc1N1CCC(N2CCCC2)CC1 [compound 54, 1-(6,7-dihydro-5H-cyclopenta [4,5]thieno[2,3-d]pyrimidin-4-yl)-N^3-(6-(4-(pyrrolidin-1-yl)piperidin-1-yl)-5-methyl-pyridin-3-yl)-1H-1,2,4-triazole-3,5-diamine] | < 1
CCN(CC)C1CCN(c2ccc(Nc3nc(N)n(-c4nc(Cl)nc5c(C)csc45)n3)cn2)C1 (stereo not shown) [compound 44, 1-(2-chloro-7-methylthieno [3,2-d]pyrimidin-4-yl)-N^3-(6-(3-diethylamino-pyrrolidin-1-yl)pyridin-3-yl)-1H-1,2,4-triazole-3,5-diamine] | < 1
Cc1csc2c(-n3nc(Nc4ccc(N5CCN(CC6CC6)CC5)nc4)nc3N)ncnc12 [compound 89, 1-(7-methylthieno [3,2-d]pyrimidine-4-yl)-N^3-(6-(4-(cyclopropyl-methyl)piperazin-1-yl)pyridine-3-yl)-1H-1,2,4-triazole-3,5-diamine] | < 1

Same assay, conditions: Hela cells, phospho-Akt readout; compounds of formula (Ib), Table 2

IC50 [µM] | SMILES
> 20 | Cc1cc(Nc2nc(N)nn2-c2nnc(C)c3ccsc23)cnc1N1CCN([C@H]2C[C@@H]3CC[C@H]2C3)CC1 [compound 132, 1-(4-methylthieno[2,3-d]pyridazin-7-yl)-N^5-(2-(4-(1S,2S,4R)-bicyclo[2.2.1]heptan-2-ylpiperazin-1-yl)-3-methylpyridin-5-yl)-1H-1,2,4-triazole-3,5-diamine]
